Tested on: DOHH2 and TMD8 DLBCL cells
Assay: Gene expression profiling (HumanHT-12 v4 BeadChip, limma), ST7612AA1 300 nM 8 hrs vs DMSO
Format: cell-based, human
Conditions: 300 nM 8 hrs vs DMSO

CC(=O)SCCCCC[C@H](NC(=O)[C@H]1CCC(=O)N1)C(=O)Nc1ccccc1 [ST7612AA1]
log ratio LOC285359 (ILMN_1675878): 6.44E-01 | log ratio LOC388588 (probe ILMN_1749834): 7.07E-01 | log ratio LOC389816 (ILMN_2249018): 6.55E-01 | log ratio LOC643384 (ILMN_3219806): -1.06E+00 | log ratio LOC644563 (ILMN_3207122): -1.31E+00 | log ratio LOC644988 (ILMN_3201485): 6.07E-01 | log ratio LOC646463 (ILMN_1721651): 6.71E-01 | log ratio LOC646786 (ILMN_1654915): 6.50E-01 | log ratio LOC646817 (ILMN_1702585): -1.11E+00 | log ratio LOC647784 (ILMN_1674710): 6.05E-01 | log ratio LOC650215 (ILMN_1743711): -8.77E-01 | log ratio LOC653566 (ILMN_1780382): -6.21E-01 | log ratio LOC654191 (probe ILMN_1762308): 7.84E-01 | log ratio LOC727935 (probe ILMN_1691616): 7.14E-01 | log ratio LOC728014 (probe ILMN_1711699): 8.58E-01 | log ratio LOC728492 (ILMN_1655444): -8.05E-01 | log ratio LOC728602 (ILMN_3305993): 6.70E-01 | log ratio LOC728650 (ILMN_3234615): -8.83E-01 | log ratio LOC729495 (probe ILMN_3297510): 7.45E-01 | log ratio LOC730101 (probe ILMN_3305735): 7.41E-01 | log ratio LOC730415 (probe ILMN_3228688): 6.95E-01 | log ratio LOC731049 (ILMN_1808591): 6.61E-01 | log ratio LOC731314 (probe ILMN_1785756): 8.31E-01 | log ratio LOC100128163 (probe ILMN_3182893): 7.83E-01 | log ratio LOC100130919 (ILMN_3176090): -8.14E-01 | log ratio LOC100131727 (probe ILMN_3292990): 7.73E-01 | log ratio LOC100131735 (ILMN_3208233): -5.90E-01 | log ratio LOC100132715 (ILMN_3211935): -5.93E-01 | log ratio LOC100133583 (probe ILMN_3214389): 8.94E-01 | log ratio LOC100133678 (probe ILMN_3249667): 8.11E-01 | log ratio LOC100134361 (probe ILMN_3241081): 8.59E-01 | log ratio LPCAT3 (ILMN_1805225): 6.30E-01 | log ratio LRCH4 (probe ILMN_2157075): 8.54E-01 | log ratio LRP8 (ILMN_1677765): -8.68E-01 | log ratio LRRC1 (probe ILMN_1755383): 7.83E-01 | log ratio LRRC16 (ILMN_1736730): 5.94E-01 | log ratio LRRC32 (ILMN_2129161): 6.30E-01 | log ratio LRRC33 (ILMN_1746148): -1.42E+00 | log ratio LRRFIP2 (ILMN_1707156): 6.31E-01 | log ratio LRRK1 (ILMN_1696004): -8.42E-01 | log ratio LTA4H (probe ILMN_1690342): 7.50E-01 | log ratio LUZP1 (ILMN_1714159): 6.25E-01 | log ratio LYAR (ILMN_1764362): -8.62E-01 | log ratio LYAR (ILMN_2221564): -9.24E-01 | log ratio LYRM5 (probe ILMN_1744534): 7.90E-01 | log ratio LYRM7 (ILMN_3238623): 6.34E-01 | log ratio LYSMD4 (probe ILMN_2159859): 6.95E-01 | log ratio MAD2L2 (ILMN_1669550): 6.43E-01 | log ratio MAK16 (ILMN_1777139): -7.86E-01 | log ratio MAP1LC3B (probe ILMN_1703244): 7.73E-01 | log ratio MAP1S (ILMN_1796336): 6.11E-01 | log ratio MAP2K1 (probe ILMN_1694240): 7.15E-01 | log ratio MAPKAPK2 (ILMN_1774844): 6.77E-01 | log ratio MAPRE2 (probe ILMN_1695276): 7.72E-01 | log ratio MARCKSL1 (probe ILMN_1714433): 8.47E-01 | log ratio MAST3 (probe ILMN_1738749): 7.21E-01 | log ratio MCL1 (ILMN_1756806): 6.49E-01 | log ratio MCRS1 (ILMN_1784227): -9.30E-01 | log ratio MED24 (ILMN_2388272): -6.00E-01 | log ratio MEPCE (ILMN_2180827): -8.77E-01 | log ratio METTL1 (ILMN_1815190): -9.82E-01 | log ratio METTL1 (ILMN_3306997): -9.97E-01 | log ratio MEX3C (ILMN_1658182): -6.16E-01 | log ratio MGC3731 (ILMN_1759991): -9.43E-01 | log ratio MGEA5 (ILMN_1686750): 6.73E-01 | log ratio MINA (ILMN_1746025): -5.93E-01 | log ratio MNS1 (probe ILMN_2157240): 7.07E-01 | log ratio MPDU1 (ILMN_1655654): -1.02E+00 | log ratio MPDU1 (ILMN_2070815): -8.19E-01 | log ratio MRLC2 (ILMN_1654016): 5.90E-01 | log ratio MRPL3 (ILMN_1713143): -8.76E-01 | log ratio MRPL20 (ILMN_2189424): -8.46E-01 | log ratio MRPL24 (ILMN_2398995): -6.00E-01 | log ratio MRPL35 (ILMN_2341952): -5.96E-01 | log ratio MRPL54 (ILMN_1658486): -9.87E-01 | log ratio MRPS26 (ILMN_1676026): -7.88E-01 | log ratio MRPS30 (ILMN_1726743): -5.98E-01 | log ratio MRPS35 (ILMN_2189993): -8.24E-01 | log ratio MRTO4 (ILMN_1689800): -9.19E-01 | log ratio MTE (probe ILMN_2136089): 8.56E-01 | log ratio MTHFD1L (ILMN_1772521): -9.66E-01 | log ratio MTHFS (ILMN_1772302): -1.28E+00 | log ratio MTP18 (ILMN_2355665): -9.91E-01 | log ratio MTX3 (ILMN_1679071): -6.10E-01 | log ratio MYB (ILMN_1711894): -9.88E-01 | log ratio MYBL1 (probe ILMN_3241046): 7.69E-01 | log ratio MYD88 (ILMN_1738523): -1.17E+00 | log ratio MYH9 (ILMN_1722872): 6.24E-01 | log ratio MYH10 (ILMN_1815154): 5.97E-01 | log ratio N6AMT2 (ILMN_1730260): -9.90E-01 | log ratio NARG1 (ILMN_1669142): -6.10E-01 | log ratio NBN (ILMN_1734833): -9.40E-01 | log ratio NECAP2 (ILMN_1749011): 6.12E-01 | log ratio NEK2 (ILMN_2051373): 6.21E-01 | log ratio NGDN (ILMN_1690049): -6.03E-01 | log ratio NIP7 (ILMN_1704305): -1.05E+00 | log ratio NLGN2 (ILMN_1764158): 6.16E-01 | log ratio NMI (ILMN_1739541): -9.86E-01 | log ratio NOL6 (ILMN_2320250): -8.75E-01 | log ratio NOL11 (ILMN_1688971): -7.88E-01 | log ratio NOP16 (ILMN_3247723): -1.13E+00 | log ratio NOSIP (probe ILMN_1759436): 7.06E-01 | log ratio NPC2 (probe ILMN_1716678): 8.44E-01 | log ratio NPHP3 (ILMN_1730539): 6.73E-01 | log ratio NPL (probe ILMN_1782070): 7.76E-01 | log ratio NPL (probe ILMN_2149494): 8.88E-01 | log ratio NQO2 (probe ILMN_1712918): 8.69E-01 | log ratio NSMAF (ILMN_1716596): -1.37E+00 | log ratio NUB1 (probe ILMN_1665291): 7.20E-01 | log ratio NUCKS1 (ILMN_3251404): -5.98E-01 | log ratio NUDT6 (ILMN_2366972): 5.92E-01 | log ratio NUDT15 (ILMN_1751403): -5.98E-01 | log ratio NUMB (probe ILMN_2331266): 7.27E-01 | log ratio NUP188 (ILMN_1715416): -5.95E-01 | log ratio NXF1 (probe ILMN_1705783): 8.80E-01 | log ratio NXF1 (probe ILMN_2358652): 7.18E-01 | log ratio NXT1 (ILMN_1760280): -8.51E-01 | log ratio OAS2 (ILMN_2248970): -1.29E+00 | log ratio OSBPL2 (ILMN_1656482): 6.07E-01 | log ratio P704P (probe ILMN_1793950): 6.85E-01 | log ratio PAG1 (ILMN_2055156): 6.63E-01 | log ratio PAQR3 (ILMN_1716071): 6.81E-01 | log ratio PAQR8 (probe ILMN_1694589): 7.20E-01 | log ratio PCMT1 (ILMN_1671621): 6.27E-01 | log ratio PCTP (ILMN_1802257): 6.55E-01 | log ratio PCYOX1 (probe ILMN_1679725): 7.89E-01 | log ratio PDCD2 (ILMN_1758915): -8.70E-01 | log ratio PDXK (probe ILMN_1672504): 8.94E-01 | log ratio PECI (probe ILMN_2384536): 8.25E-01 | log ratio PEMT (ILMN_1745806): -5.93E-01 | log ratio PEX16 (probe ILMN_1745655): 7.84E-01 | log ratio PFKFB3 (ILMN_2186061): 6.71E-01 | log ratio PHF5A (ILMN_2112402): -8.44E-01 | log ratio PHF15 (ILMN_1795285): -8.13E-01 | log ratio PHF19 (ILMN_1713249): -1.52E+00 | log ratio PHF19 (ILMN_1745420): -1.01E+00 | log ratio PIGW (ILMN_1743397): -1.03E+00 | log ratio PIM2 (probe ILMN_1748283): 7.43E-01 | log ratio PITX1 (ILMN_1674386): -8.58E-01 | log ratio PKIA (ILMN_1762262): 6.12E-01 | log ratio PKIA (probe ILMN_2337974): 7.37E-01 | log ratio PLD3 (probe ILMN_1666976): 8.81E-01 | log ratio PLD6 (ILMN_1731518): -1.18E+00 | log ratio PLD6 (ILMN_3240586): -1.84E+00 | log ratio PLIN2 (ILMN_2138765): 5.92E-01 | log ratio PLS1 (ILMN_1759206): 6.43E-01 | log ratio PLXNA3 (ILMN_1719972): 6.52E-01 | log ratio PMAIP1 (probe ILMN_2098446): 8.50E-01 | log ratio PNKD (probe ILMN_1774604): 7.25E-01

Source: paper PMC4467398, “Preclinical antitumor activity of ST7612AA1: a new oral thiol-based histone deacetylase (HDAC) inhibitor” (Oncotarget, 2014)
